Active and inactive are the calls of the source.

In test [1] the target is DNA dC->dU-editing enzyme APOBEC-3A (Homo sapiens, UniProt P31941). Kind of test: Dose Response confirmation of small molecule APOBEC3A DNA Deaminase Inhibitors via a fluorescence-based single-stranded DNA deaminase assay. [Related pubchem assays (depositor defined):AID493011, AID493024]. Type of test: functional.
For test [2], the target named is DNA dC->dU-editing enzyme APOBEC-3G (Homo sapiens, UniProt Q9HC16). Type of test: functional.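 Further: Dose-response counterscreen measuring inhibition of APOBEC3G DNA deaminase activity, run while confirming APOBEC3A inhibitors.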
The next test addresses T1, Mucolipin-3 (Homo sapiens, UniProt Q8TDD5).
T1 sequence (Q8TDD5 whole entry): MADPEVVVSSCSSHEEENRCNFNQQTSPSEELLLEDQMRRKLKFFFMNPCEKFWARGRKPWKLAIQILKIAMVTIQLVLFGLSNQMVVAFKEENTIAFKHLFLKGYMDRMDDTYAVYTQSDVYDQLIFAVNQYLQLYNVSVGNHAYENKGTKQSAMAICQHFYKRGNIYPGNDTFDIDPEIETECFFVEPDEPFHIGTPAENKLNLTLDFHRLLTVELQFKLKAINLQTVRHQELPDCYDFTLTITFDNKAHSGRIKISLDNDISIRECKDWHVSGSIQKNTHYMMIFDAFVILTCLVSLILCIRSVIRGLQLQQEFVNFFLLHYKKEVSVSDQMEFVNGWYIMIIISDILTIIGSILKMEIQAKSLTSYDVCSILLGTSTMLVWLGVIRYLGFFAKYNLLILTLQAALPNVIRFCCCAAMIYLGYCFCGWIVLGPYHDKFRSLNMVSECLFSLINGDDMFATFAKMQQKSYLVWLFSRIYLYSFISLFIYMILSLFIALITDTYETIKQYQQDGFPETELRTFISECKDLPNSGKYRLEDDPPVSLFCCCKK
Kind of test: Dose response cell-based high-throughput screening assay for agonists of the transient receptor potential channel ML3 (TRPML3). [Related pubchem assays: 1526, 1424, 1448 ]. Type of test: functional.

Another test addresses Ion channel NompC (Danio rerio, UniProt Q7T1G6). Kind of test: Fluorescence counterscreen assay for TRPML3 agonists: dose response cell-based high-throughput screening assay to identify agonists of the transient receptor potential channel N1 (TRPN1). [Related pubchem assays: 1526, 1424, 1448 ]. The test is classed as functional.
The target in test [3] is Luciferin 4-monooxygenase (Photinus pyralis, UniProt P08659). Kind of test: Counter Screen for Luciferase-based Assay Positives. [Related pubchem assays: 620, 618, 411 ].
For the next test, the system named is HT-1080. Kind of test: cytotoxicity in HT1080 fibrosarcoma cells, cell-based, fluorescence readout (AID 620). Type of test: functional. The note with it: Homo sapiens.
The target in test [4] is T2, RNA-binding protein pos-1 (Caenorhabditis elegans, UniProt G5EF15).
T2 sequence (G5EF15 whole entry): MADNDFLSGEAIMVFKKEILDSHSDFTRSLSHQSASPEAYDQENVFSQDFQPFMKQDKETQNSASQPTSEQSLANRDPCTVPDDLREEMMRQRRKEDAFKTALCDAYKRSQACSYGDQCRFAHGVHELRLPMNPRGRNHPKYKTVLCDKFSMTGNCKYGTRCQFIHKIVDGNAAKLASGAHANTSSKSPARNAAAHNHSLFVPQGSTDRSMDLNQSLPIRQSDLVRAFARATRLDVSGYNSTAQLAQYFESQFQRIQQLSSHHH
Kind of test: inhibitors of POS-1/mex-3 RNA binding, dose response, biochemical, fluorescence polarization (AID 1964).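 Further: purified POS-1 fused to maltose binding protein made in E. coli; potency of compounds blocking POS-1 binding to fluorescent RNA.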

For test [5], the target named is T3, Zinc finger protein mex-5 (Caenorhabditis elegans, UniProt Q9XUB2).
T3 sequence (Q9XUB2 whole entry): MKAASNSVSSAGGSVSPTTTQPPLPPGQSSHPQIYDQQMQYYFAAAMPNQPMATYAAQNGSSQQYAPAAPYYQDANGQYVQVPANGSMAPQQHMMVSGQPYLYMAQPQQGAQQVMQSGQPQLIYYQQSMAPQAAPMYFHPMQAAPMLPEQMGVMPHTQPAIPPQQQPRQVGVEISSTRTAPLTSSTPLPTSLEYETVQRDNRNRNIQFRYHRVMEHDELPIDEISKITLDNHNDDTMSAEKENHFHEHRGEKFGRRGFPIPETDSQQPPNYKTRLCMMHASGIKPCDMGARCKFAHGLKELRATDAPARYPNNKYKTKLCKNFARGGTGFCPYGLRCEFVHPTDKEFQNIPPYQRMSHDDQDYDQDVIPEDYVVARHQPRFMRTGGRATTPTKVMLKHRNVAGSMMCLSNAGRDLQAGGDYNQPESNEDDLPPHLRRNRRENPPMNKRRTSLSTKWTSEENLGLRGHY
Kind of test: MEX-5/TCR-2 RNA interaction inhibitors, dose response, biochemical, C. elegans, fluorescence polarization (AID 1960).

The target in test [6] is T4, Histone-lysine N-methyltransferase NSD2 (Homo sapiens, UniProt O96028).
T4 sequence (O96028 whole entry): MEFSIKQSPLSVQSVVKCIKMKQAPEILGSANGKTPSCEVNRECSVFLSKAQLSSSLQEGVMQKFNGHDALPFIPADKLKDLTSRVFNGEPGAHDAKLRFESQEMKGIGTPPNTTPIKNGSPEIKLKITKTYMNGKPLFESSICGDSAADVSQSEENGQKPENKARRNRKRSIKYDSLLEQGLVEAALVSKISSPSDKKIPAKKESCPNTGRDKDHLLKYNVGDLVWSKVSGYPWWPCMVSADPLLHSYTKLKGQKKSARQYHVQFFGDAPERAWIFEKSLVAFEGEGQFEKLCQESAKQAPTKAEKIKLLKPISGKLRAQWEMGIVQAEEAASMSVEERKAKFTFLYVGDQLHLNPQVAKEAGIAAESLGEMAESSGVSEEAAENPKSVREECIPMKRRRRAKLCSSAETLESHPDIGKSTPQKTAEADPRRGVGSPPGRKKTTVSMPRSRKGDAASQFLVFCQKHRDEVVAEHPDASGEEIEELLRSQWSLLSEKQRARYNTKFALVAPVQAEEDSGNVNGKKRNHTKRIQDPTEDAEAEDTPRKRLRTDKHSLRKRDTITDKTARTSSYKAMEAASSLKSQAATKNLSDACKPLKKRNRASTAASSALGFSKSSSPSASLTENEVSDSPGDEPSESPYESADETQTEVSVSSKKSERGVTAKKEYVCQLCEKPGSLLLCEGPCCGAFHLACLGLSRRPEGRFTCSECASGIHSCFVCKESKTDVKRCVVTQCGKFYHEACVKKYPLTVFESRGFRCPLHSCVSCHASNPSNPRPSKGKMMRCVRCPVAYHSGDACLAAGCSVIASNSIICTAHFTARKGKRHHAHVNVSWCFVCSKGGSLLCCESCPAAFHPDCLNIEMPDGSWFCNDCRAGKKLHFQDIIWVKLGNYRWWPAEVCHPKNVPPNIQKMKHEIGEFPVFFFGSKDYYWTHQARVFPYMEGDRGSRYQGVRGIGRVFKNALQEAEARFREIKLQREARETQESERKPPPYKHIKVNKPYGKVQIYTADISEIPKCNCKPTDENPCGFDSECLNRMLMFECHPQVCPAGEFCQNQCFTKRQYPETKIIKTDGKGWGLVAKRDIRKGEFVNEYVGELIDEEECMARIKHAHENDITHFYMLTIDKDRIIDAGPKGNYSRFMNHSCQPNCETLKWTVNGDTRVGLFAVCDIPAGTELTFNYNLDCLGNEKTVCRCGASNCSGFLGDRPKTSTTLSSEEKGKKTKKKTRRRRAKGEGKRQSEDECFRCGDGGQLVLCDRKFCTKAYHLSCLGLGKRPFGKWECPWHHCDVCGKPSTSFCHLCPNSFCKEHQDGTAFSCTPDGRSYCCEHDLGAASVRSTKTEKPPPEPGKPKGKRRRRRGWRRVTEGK
The test is classed as biochemical.

Test [7] deals with Potassium voltage-gated channel subfamily KQT member 2 (Rattus norvegicus, UniProt O88943). Kind of test: retigabine-insensitive KCNQ2 potentiators, concentration-response, dose response, cell-based, retigabine-insensitive compounds (AID 2654). Type of test: functional.
In test [8] the target is G-protein coupled receptor 55 (Homo sapiens, UniProt Q9Y2T6). Kind of test: GPR55 antagonists blocking LPI-driven arrestin recruitment, primary screen, imaging, U2OS, beta-arrestin-GFP, LPI agonist (AID 2013).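 Further: antagonist potency measured as reduced agonist-driven arrestin aggregation.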 Type of test: functional.
Test [9] in a line: cells. Type of test: functional, cell-based.
Test [10] can be described thus: cells. The test is classed as functional, cell-based. The source holds these as a separate data set.
Test [11] deals with DNA damage-inducible transcript 3 protein (Mus musculus, UniProt P35639). Type of test: functional, Cricetulus griseus.
A short description of test [12]: HEp-2 cell cytotoxicity, dose response, cytotoxicity control for RSV inhibitor project, HTS (AID 2410). The test is classed as functional. The note with it: human respiratory syncytial virus.
Test [13] deals with Vero. Kind of test: cells. Type of test: functional, cell-based. The note with it: Chlorocebus sabaeus.
Test [14] deals with Vero. Kind of test: cells. Type of test: functional. The note with it: Chlorocebus sabaeus.
A short description of test [15]: cells.
Test [16] in a line: Shn3 3'UTR reporter inhibitors, dose response, cell-based, Clone20 osteoblasts, firefly luciferase, cherry-picked (AID 624132).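 Further: firefly luciferase luminescence from reporter carrying the Shn3 3'UTR in osteoblasts.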 Type of test: functional.
Test [17] is described as follows: HepG2 cell cytotoxicity, dose response, cytotoxicity control for Shn3 inhibitor project, CellTiter-Glo, cherry-picked (AID 624134). Type of test: functional, cell-based.
Test [18] is described as follows: control 3'UTR Renilla luciferase suppression, dose response, counter-screen for Shn3 inhibitor project, cell-based, Clone20-Shn3RL, cherry-picked (AID 624133). The test is classed as functional.
Test [19] can be described thus: NIH-3T3 fibroblast cytotoxicity, dose response, cytotoxicity control, cell-based, fluorescence, Alamar Blue, secondary assay (AID 2327).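 Further: NIH-3T3 mouse fibroblasts cultured with fluconazole at 8 µg/mL.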 The test is classed as functional.
Test [20] relates to HEK293. Kind of test: NOD1 signaling inhibitors, primary screen, cell-based, luminescence, uHTS (AID 1578). The test is classed as functional. Particulars: Homo sapiens.
Test [21] has as its system HEK293. Kind of test: cells. Type of test: functional, cell-based. Particulars: Homo sapiens.
The nature of test [22]: C. albicans growth with fluconazole, confirmation, fluorescence, retest (AID 2467). Type of test: functional, cell-based.
Test [23] relates to HEK293. Kind of test: cells. Type of test: functional, cell-based. The note with it: Homo sapiens. The source holds these as a separate data set.
The test system of test [24] is HEK293. Kind of test: NOD2 signaling inhibitors in MDP-stimulated cells, cell-based, uHTS, luminescence (AID 2001). The test is classed as functional. Particulars: Homo sapiens.
Test [25] can be described thus: inhibitors of intracellular T. cruzi replication, confirmation, NIH3T3 host cells, beta-gal luminescence (AID 2044).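 Further: intracellular parasites grown in NIH/3T3 mouse fibroblasts as host cells; luminescent beta-galactosidase reporter signal from transgenic T. cruzi replicating inside host cells; inhibitors lower the luminescence signal.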 The test is classed as functional, cell-based.
Test [26] in a line: cytotoxicity toward NIH3T3 fibroblasts, dose response, counter-screen, cell-based, ATP luminescence, mouse fibroblasts (AID 2010).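 Further: cells exposed to compound for about 90 hours before reading.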 The test is classed as functional.
Test [27] is described as follows: cytotoxicity in HEK-293T cells, dose response, cytotoxicity control for TCR NF-kB inhibitor project, luminescence, T-cell screen hits (AID 489026).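 Further: cells exposed to compound about 14 hours before the viability readout.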 The test is classed as functional, cell-based.
Test [28] addresses FAD-linked sulfhydryl oxidase ALR (Homo sapiens, UniProt P55789). Kind of test: inhibitors of human ALR sulfhydryl oxidase, dose response, biochemical, H2O2 detection, luminescence, cherry-pick (AID 493248).

Chain of DNA dC->dU-editing enzyme APOBEC-3G (Q9HC16 whole entry): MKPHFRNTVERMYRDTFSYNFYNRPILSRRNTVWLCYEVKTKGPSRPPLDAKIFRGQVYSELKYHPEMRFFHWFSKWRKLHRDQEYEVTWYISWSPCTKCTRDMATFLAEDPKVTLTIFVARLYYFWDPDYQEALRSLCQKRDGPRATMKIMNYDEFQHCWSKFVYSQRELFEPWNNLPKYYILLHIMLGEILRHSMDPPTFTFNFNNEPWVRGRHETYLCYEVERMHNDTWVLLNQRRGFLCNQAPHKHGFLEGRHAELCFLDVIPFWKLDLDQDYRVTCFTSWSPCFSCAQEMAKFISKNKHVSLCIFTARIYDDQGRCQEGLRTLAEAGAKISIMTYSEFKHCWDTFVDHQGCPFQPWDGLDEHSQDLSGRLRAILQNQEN
Chain of Potassium voltage-gated channel subfamily KQT member 2 (O88943 whole entry): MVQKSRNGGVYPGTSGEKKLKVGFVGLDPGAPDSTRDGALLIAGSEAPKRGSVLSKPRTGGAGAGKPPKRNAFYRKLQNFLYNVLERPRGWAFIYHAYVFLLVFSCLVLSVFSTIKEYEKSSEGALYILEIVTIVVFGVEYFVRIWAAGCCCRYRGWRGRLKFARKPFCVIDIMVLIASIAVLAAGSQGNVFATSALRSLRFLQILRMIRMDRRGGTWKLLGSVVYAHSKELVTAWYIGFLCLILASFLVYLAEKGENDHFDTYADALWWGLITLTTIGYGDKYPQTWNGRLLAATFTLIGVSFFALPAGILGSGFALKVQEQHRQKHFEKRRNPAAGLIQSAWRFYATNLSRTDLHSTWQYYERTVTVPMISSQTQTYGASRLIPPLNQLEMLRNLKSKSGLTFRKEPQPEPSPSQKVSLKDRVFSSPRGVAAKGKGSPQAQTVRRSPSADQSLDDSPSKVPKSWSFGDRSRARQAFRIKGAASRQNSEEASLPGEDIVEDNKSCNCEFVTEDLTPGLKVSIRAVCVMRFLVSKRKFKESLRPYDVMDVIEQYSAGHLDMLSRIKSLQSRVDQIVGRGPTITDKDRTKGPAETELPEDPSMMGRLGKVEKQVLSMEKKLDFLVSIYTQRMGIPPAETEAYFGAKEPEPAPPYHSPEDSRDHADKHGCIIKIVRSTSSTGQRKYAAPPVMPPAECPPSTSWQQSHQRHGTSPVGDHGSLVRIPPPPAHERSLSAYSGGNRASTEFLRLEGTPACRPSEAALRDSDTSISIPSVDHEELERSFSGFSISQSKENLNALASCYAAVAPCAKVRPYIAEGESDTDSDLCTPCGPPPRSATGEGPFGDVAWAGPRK
Chain of DNA dC->dU-editing enzyme APOBEC-3A (P31941 whole entry): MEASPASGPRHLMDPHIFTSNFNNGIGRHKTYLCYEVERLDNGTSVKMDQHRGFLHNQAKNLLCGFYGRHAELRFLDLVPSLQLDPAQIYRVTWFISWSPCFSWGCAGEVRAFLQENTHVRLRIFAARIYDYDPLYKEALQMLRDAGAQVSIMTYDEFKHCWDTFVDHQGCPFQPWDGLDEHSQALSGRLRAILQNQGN
Chain of Ion channel NompC (Q7T1G6 whole entry): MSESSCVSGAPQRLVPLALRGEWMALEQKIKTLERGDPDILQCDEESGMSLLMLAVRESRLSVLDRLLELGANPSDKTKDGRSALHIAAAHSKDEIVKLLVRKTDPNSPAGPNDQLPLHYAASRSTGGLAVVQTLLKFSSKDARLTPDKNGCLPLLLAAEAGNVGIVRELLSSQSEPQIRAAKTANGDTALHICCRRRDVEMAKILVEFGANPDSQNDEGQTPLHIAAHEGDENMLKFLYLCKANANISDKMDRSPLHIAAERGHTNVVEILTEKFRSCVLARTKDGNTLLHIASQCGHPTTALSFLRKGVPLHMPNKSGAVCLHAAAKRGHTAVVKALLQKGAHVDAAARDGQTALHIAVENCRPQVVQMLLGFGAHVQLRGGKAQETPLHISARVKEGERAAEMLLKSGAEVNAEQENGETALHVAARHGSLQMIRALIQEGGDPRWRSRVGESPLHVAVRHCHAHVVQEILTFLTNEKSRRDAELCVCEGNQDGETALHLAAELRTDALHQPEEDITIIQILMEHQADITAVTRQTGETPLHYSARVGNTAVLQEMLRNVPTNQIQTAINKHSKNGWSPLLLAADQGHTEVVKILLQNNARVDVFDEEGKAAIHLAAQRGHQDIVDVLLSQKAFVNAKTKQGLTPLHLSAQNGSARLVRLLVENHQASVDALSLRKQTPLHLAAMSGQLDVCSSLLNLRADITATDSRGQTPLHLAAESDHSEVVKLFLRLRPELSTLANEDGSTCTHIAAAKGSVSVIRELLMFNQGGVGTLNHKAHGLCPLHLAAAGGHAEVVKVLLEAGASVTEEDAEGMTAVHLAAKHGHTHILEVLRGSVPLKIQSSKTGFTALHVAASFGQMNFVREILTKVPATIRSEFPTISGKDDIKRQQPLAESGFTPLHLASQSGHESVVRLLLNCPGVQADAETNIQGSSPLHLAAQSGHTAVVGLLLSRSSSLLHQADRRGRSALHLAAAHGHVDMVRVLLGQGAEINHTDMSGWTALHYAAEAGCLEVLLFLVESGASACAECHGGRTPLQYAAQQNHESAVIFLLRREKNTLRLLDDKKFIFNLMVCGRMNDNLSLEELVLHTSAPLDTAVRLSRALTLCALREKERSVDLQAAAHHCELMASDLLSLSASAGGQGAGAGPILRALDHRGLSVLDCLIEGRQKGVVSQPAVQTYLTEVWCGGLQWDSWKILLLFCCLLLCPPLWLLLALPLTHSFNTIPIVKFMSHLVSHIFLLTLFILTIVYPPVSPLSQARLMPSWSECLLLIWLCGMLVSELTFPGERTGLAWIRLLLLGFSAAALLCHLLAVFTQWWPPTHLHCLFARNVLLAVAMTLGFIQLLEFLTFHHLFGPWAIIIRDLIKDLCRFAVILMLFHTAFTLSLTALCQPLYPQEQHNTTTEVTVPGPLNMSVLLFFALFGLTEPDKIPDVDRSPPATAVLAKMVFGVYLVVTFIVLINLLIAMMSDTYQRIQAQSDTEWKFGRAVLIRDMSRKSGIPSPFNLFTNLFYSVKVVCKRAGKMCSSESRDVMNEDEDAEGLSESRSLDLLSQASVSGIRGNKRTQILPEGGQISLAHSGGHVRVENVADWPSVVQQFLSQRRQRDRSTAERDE
Chain of G-protein coupled receptor 55 (Q9Y2T6 whole entry): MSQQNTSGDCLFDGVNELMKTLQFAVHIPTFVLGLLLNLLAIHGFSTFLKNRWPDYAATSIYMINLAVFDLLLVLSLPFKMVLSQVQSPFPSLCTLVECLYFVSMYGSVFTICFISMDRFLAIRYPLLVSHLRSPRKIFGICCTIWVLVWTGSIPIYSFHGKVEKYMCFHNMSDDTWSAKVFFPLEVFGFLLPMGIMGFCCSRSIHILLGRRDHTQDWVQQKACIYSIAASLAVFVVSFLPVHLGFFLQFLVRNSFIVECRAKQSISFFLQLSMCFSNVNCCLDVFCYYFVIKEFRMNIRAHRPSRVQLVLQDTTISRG
Chain of DNA damage-inducible transcript 3 protein (P35639 whole entry): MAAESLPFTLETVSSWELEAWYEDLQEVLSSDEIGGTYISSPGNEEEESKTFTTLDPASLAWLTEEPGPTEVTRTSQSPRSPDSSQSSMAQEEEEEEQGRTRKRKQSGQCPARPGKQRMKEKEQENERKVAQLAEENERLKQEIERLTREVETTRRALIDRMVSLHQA
Chain of Luciferin 4-monooxygenase (P08659 whole entry): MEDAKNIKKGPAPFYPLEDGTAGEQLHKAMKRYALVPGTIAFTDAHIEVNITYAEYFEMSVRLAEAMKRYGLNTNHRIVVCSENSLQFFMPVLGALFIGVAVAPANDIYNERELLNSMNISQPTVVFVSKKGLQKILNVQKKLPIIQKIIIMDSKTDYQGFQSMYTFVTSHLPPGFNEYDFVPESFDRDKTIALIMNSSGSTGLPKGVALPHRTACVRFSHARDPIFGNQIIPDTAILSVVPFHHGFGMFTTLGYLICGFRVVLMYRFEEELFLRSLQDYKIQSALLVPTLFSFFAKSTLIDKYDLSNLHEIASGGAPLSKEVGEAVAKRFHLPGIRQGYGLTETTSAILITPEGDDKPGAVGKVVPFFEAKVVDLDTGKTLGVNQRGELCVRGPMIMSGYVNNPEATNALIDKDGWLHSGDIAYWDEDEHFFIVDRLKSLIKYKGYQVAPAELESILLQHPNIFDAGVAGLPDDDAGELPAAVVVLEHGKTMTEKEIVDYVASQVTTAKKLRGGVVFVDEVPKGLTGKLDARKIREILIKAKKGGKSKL
Chain of FAD-linked sulfhydryl oxidase ALR (P55789 whole entry): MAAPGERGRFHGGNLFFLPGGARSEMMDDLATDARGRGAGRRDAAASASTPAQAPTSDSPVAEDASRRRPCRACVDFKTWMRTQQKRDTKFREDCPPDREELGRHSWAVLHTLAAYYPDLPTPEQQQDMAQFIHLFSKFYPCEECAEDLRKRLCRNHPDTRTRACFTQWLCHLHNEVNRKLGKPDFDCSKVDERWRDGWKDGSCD

With `O=C(CSc1nnnn1-c1ccccc1)Nc1ccc(N2CCOCC2)c(Cl)c1`, the IC50 in test [1] is 6.63 µM (active); in test [2], 9.68 µM (active).

Turning to `CC1CCN(S(=O)(=O)c2ccc(Br)s2)CC1`, the EC50 at Mucolipin-3 and on Ion channel NompC was > 29.9 µM (not active) throughout.

`Cc1ccc(-c2nc3cc(NC(=O)C(C)C)ccc3o2)cc1`: the EC50 in test [3] was 0.23 µM (active); in the test on HT-1080 it was > 50 µM (not active).

For `Cc1ccc(CN2C(=O)N/C(=C\c3cccn3-c3cccc(C(=O)O)c3)C2=O)cc1`, the EC50 in test [4] and in test [5] was > 300 µM (not active) in each case. For the same compound, the IC50 in test [1] was 10.3 µM (active); in test [2] it was 25.7 µM (active). Besides, in test [6], the AC50 was 12.8 µM (active).

`Cc1cncc(NC(=O)Nc2cccc(F)c2)c1`: the EC50 in test [7] is 12.4 µM (active).

`O=C(Nc1cccnc1)Nc1ccc2c(c1)OCO2`: in [7], the EC50 is 152 µM (active).

Take `CCCSc1ccc(-c2nn(-c3ccccc3)cc2/C=C(/C#N)C(=O)N2CCOCC2)cc1`: the IC50 in test [8] was < 0.5 µM (active).

In the case of `Cc1nc(NC(=O)c2csc3ccccc23)sc1C`, the EC50 at Mucolipin-3 was 8.95 µM (active); on Ion channel NompC it was > 29.9 µM (not active).

With `CCC(Cc1ccccc1)n1c(=S)[nH]c2ccccc2c1=O` (stereo unspecified), the EC50 in “cells [9]” and in “cells [10]” was > 350 µM (not active) throughout. The “Absolute IC50 (CHOP)” value in [11] is 10 µM.

Turning to `Cc1cc(N)n2nc(-c3ccccc3)c(-c3ccccc3)c2n1`, the IC50 in [8] is 2.35 µM (active).

For `Cc1cc(NC(=O)Nc2cccc(F)c2)cnc1Br`, the EC50 in test [7] was 6.61 µM (active).

In the case of `Cc1cc(NC(=O)COC(=O)c2ccccc2S(=O)(=O)N(C)c2ccccc2)no1`, the CC50 in test [12] is 34.1 µM (active); with Vero [14], > 25 µM (active). The IC50 was > 25 µM (active) in the test on Vero [13] and 9.76 µM (active) in “cells [15]”.

Consider `COc1ccccc1-c1cc(C(F)(F)F)nc(S(=O)(=O)CCCC(=O)Nc2cc(C)on2)n1`, for which the “Absolute IC50 (CHOP)” value in test [11] was determined as 10 µM. The AC50 in test [16] was 6.57 µM (active); in test [17], 28 µM (active); in [18] it was 16 µM (active).

`Cc1ccc(C=Cc2ccc(N(C)C)cc2)[n+](C)c1`: the EC50 is > 160 µM (inconclusive) in [19]; 4.84 µM (active) with HEK293 [20]; 3.83 µM (active) in test [22]; 0.232 µM (active) in test [25]; 16.1 µM (active) in test [26]. Moreover, the IC50 in the test with HEK293 [21] was 10.8 µM (active); with HEK293 [23] it was > 20 µM (inactive); in the test with HEK293 [24] it was 16 µM (inactive); in test [1] it was 3.16 µM (active); in test [27], > 80 µM (inactive); in [2], 4.34 µM (active). In test [28], the AC50 was 1.24 µM (active).

The values above are taken from ChEMBL document CHEMBL1201862, “PubChem BioAssay data set” (2004).
